Measurements: patent US20210128566A1, “NOVEL FUNCTIONALIZED PURINE-2,6-DIONES AND THEIR USE IN MEDICINE” (THOMAS HELLEDAYS STIFTELSE FÖR MEDICINSK FORSKNING, priority 2017, published 2021)

Tests used:
[1] = molecular target: recombinant human NUDT5 (Homo sapiens, UniProt Q9UKK9); assay: NUDT5 inhibitor activity by malachite green reporter assay; type: biochemical; conditions: 6 nM NUDT5, 50 μM ADP-Ribose, 15 minutes at room temperature
How it was run: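 Coupled ADP-ribose hydrolysis in 10 mM Tris-acetate pH 8.0, 40 mM NaCl, 10 mM Mg acetate, 0.005% Tween-20, 1 mM DTT: 6 nM NUDT5, 50 μM ADP-Ribose, 10 U/ml alkaline phosphatase, 15 min at room temperature. Pi read by malachite green at 630 nm; compounds 100 μM–1.7 nM, 3-fold; IC50 by curve fit.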

[2] = test system: T47D^WT cells; assay: Nuclear-targeted luciferase reporter of nuclear ATP production after R5020 stimulation; type: cell-based; conditions: hormone-starved T47D^WT cells, compound for two hours, then R5020; Compound 19 at 1.5 μM, Compounds 16/17 at 15 μM
Protocol: Top, a representative measurement of bioluminescence intensity over 60 minutes of R5020 treatment; bottom, box-and-whisker plots of bioluminescence quantitations from six independent experiments (center line, median; box limits, upper and lower quartiles; whiskers, minima and maxima; individual data points also shown). ns—not significant, *—p<0.05, **—p<0.01, ***—p<0.001; repeated measures two-way ANOVA analysis.
In HR+ breast cancer cells, NUDT5 activity is required to produce ATP in the nucleus following hormone stimulation (Wright, R. H. G. et al., Science, 352, 1221-1225 (2016)). A nuclear-targeted luciferase reporter system was employed to monitor ATP production after hormone stimulation.
Hormone-starved T47D^WT cells were treated with example compounds as described herein for two hours and then stimulated with the progesterone receptor agonist, R5020, for the time points indicated.

Row | Compound | IC50 ([1]; Table 4) [nM] | IC50 ([1]; Table 3) [nM] | nuclear luminescence (nuclear ATP production) [2]
1 | CCN1CCN(c2nc3c(c(=O)n(C)c(=O)n3C)n2Cc2nnc(-c3ccc(Cl)c(Cl)c3)o2)CC1 [Example 17, 7-{[5-(3,4-dichlorophenyl)-1,3,4-oxadiazol-2-yl]methyl}-8-(4-ethylpiperazin-1-yl)-1,3-dimethyl-2,3,6,7-tetrahydro-1H-purine-2,6-dione] |  | 39 | Strong luminescence
2 | Cn1c(=O)c2c(nc(N3CCNCC3)n2Cc2nnc(-c3ccc(Cl)c(Cl)c3)o2)n(C)c1=O [Example 19, 7-{[5-(3,4-dichlorophenyl)-1,3,4-oxadiazol-2-yl]methyl}-1,3-dimethyl-8-(piperazin-1-yl)-2,3,6,7-tetrahydro-1H-purine-2,6-dione] |  | 29.1 | reduced nuclear luminescence
3 | CCCCN1CCN(c2nc3c(c(=O)n(C)c(=O)n3C)n2Cc2nnc(-c3ccc(Cl)c(Cl)c3)o2)CC1 [Example 16, 8-(4-butylpiperazin-1-yl)-7-{[5-(3,4-dichlorophenyl)-1,3,4-oxadiazol-2-yl]methyl}-1,3-dimethyl-2,3,6,7-tetrahydro-1H-purine-2,6-dione] |  | 53.8 | Strong luminescence
4 | Cn1c(=O)c2c(nc(N3CCN(CCN)CC3)n2Cc2nnc(-c3ccc(Cl)c(Cl)c3)o2)n(C)c1=O [Example 30, 8-[4-(2-aminoethyl)piperazin-1-yl]-7-{[5-(3,4-dichlorophenyl)-1,3,4-oxadiazol-2-yl]methyl}-1,3-dimethyl-2,3,6,7-tetrahydro-1H-purine-2,6-dione] |  | 33.2 | 
5 | Cn1c(=O)c2c(nc(Cl)n2Cc2nc(-c3ccc(Cl)cc3)no2)n(C)c1=O [Example 69, 8-chloro-7-{[3-(4-chlorophenyl)-1,2,4-oxadiazol-5-yl]methyl}-1,3-dimethyl-2,3,6,7-tetrahydro-1H-purine-2,6-dione] | 296 |  | 
6 | Cn1c(=O)c2c(nc(N3CC(NC(=O)OC(C)(C)C)C3)n2Cc2nnc(-c3ccc(Cl)c(Cl)c3)o2)n(C)c1=O [Example 26, tert-butyl N-[1-(7-{[5-(3,4-dichlorophenyl)-1,3,4-oxadiazol-2-yl]methyl}-1,3-dimethyl-2,6-dioxo-2,3,6,7-tetrahydro-1H-purin-8-yl)azetidin-3-yl]carbamate] |  | 324 | 
7 | CN1CCN(c2nc3c(c(=O)n(C)c(=O)n3C)n2Cc2nnc(-c3ccc(Cl)c(Cl)c3)o2)CC1 [Example 18, 7-{[5-(3,4-dichlorophenyl)-1,3,4-oxadiazol-2-yl]methyl}-1,3-dimethyl-8-(4-methylpiperazin-1-yl)-2,3,6,7-tetrahydro-1H-purine-2,6-dione] |  | 151 | 
8 | Cn1c(=O)c2c(nc(Cl)n2Cc2cn(-c3ccc(Cl)c(Cl)c3)nn2)n(C)c1=O [Example 143, 8-chloro-7-{[1-(3,4-dichlorophenyl)-1H-1,2,3-triazol-4-yl]methyl}-1,3-dimethyl-2,3,6,7-tetrahydro-1H-purine-2,6-dione] | 14000 |  | 

Further lines, with some results ahead:

Row | IC50 ([1]; Table 4) [nM] | Compound | IC50 ([1]; Table 3) [nM] | nuclear luminescence (nuclear ATP production) [2]
9 | 119 | COc1cccc(-c2nnc(Cn3c(N4CCNCC4)nc4c3c(=O)n(C)c(=O)n4C)o2)c1 [Example 111, 7-{[5-(3-methoxyphenyl)-1,3,4-oxadiazol-2-yl]methyl}-1,3-dimethyl-8-(piperazin-1-yl)-2,3,6,7-tetrahydro-1H-purine-2,6-dione] |  | 
10 | 352 | COc1cc(-c2nnc(Cn3c(NCCNS(C)(=O)=O)nc4c3c(=O)n(C)c(=O)n4C)o2)ccc1C [Example 133, N-{2-[(7-{[5-(3-methoxy-4-methylphenyl)-1,3,4-oxadiazol-2-yl]methyl}-1,3-dimethyl-2,6-dioxo-2,3,6,7-tetrahydro-1H-purin-8-yl)amino]ethyl}methanesulfonamide] |  | 
